Where two headings read alike, the source gives them in different places.
Key:
[1] = system: HeLa cells actin cytoskeleton; assay: Actin cytoskeleton staining, confocal microscopy, HeLa; type: cell-based, human; conditions: 10 μg/mL, 24 h; for HeLa cells with filopodia-like deformations: control cells 93%, lowest value over the compounds; for HeLa cells with granular actin distributed diffusely in the cytoplasm (stress fibers disappeared): maximum over the compounds
Experimental: It was found using confocal microscopy that incubation with spiro-fused [3-azabicyclo[3.1.0]hexane]oxindoles 4, 8, 17, 18, 22, 24 and cyclopropa[a]pyrrolizidine-2,3′-oxindole 2 led to significant changes in the HeLa cells’ actin cytoskeleton structure leading to the disappearance of stress fibers (granular actin was distributed diffusely in the cytoplasm in up to 38% of treated cells) and changes in the number of filopodia-like deformations (reduced from 93% in control cells to 64% after treatment). The impact on the Sk-mel-2 cells’ actin cytoskeleton structure was even greater: granular actin was distributed diffusely in the cytoplasm in up to 90% of treated cells while the number of filopodia-like deformations was reduced by up to 23%. Such changes in the cytoskeleton may indicate a change in the motor activity of cells, which may indicate a decrease in the ability of tumor cells to metastasize.
HeLa cells were seeded at a density of 2 × 10^5 cells per dish onto a petri dish with cover slips and incubated for 24 h. After that, cells were treated with chosen compounds (10 μg/mL) for 24 h. The medium was removed and cells were fixed with 4% paraformaldehyde (Sigma-Aldrich, St. Louis, MO, USA), washed three times with PBS, and permeabilized with 0.3% Triton-X100 (Sigma-Aldrich, St. Louis, MO, USA). The cells were rinsed three times with PBS. Actin filaments (microfilaments) were stained with rhodamine–phalloidin (Invitrogen, Carlsbad, CA, USA) at 37 °C for 15 min. The samples were rinsed three times with PBS, followed by embedding in Fluoroshield medium (Sigma-Aldrich, St. Louis, MO, USA). Cells were imaged using an Axio Observer Z1 confocal microscope (Carl Zeiss MicroImaging GmbH, Jena, Germany). In each experiment, at least 30 cells were imaged. Images were analyzed by a pathologist blinded to the treatment mode used for each group using ImageJ software, 1.52v.

[2] = system: acute T cell leukemia (Jurkat) cell line; assay: MTS cell proliferation assay, Jurkat; type: cell-based, human; conditions: for IC50: Homo sapiens, Jurkat, MTS; for SI (selectivity index) Jurkat: ratio of cytotoxicity PBMC / Jurkat, calculated at 72 h
Experimental: (§1) Cancer cell lines are valuable in vitro model systems that are widely used in cancer research and drug discovery. Their use is mainly linked to their possibility to provide for experimental purposes an unlimited source of biological material. Here, the 24 and 72 h in vitro MTS assay was used to determine the antiproliferative activity of synthesized spiro-fused cyclopropa[a]pyrrolizidine-2,3′-oxindoles and [3-azabicyclo[3.1.0]hexane]-oxindoles against human erythroleukemia (K562), acute T cell leukemia (Jurkat), cervical carcinoma (HeLa), melanoma (Sk-mel-2), breast cancer adenocarcinoma (MCF-7) as well as mouse colon carcinoma (CT26) cell lines. […] The full results of these investigations are presented in the Supporting Information Figures S1–S6. […] An evaluation of the cytotoxicity of the selected compounds towards normal cells (peripheral blood mononuclear cells) was performed additionally to understand their respective relative selectivities. The selectivity index was obtained using the ratio of measured cytotoxicity between the PBMC cells and each of the cancer cell lines, and the results are presented in Table 3.
(§2) The human erythroleukemia (K-562), cervical carcinoma (HeLa) as well as mouse colon carcinoma (CT26) cell lines were obtained from the Bank of Cell Cultures of the Institute of Cytology of the Russian Academy of Sciences; the human melanoma (Sk-mel-2) cell line was obtained from the Bank of Cell Cultures of the Institute of Cytology and Genetics, Siberian Branch of the Russian Academy of Sciences. The acute T cell leukemia (Jurkat) cell line was obtained from the Bank of Cell Cultures of the Institute of Immunology of the Russian Academy of Medical Sciences. The peripheral blood mononuclear cells (PBMC) were isolated from the blood of healthy donors. K-562, Jurkat, MCF-7, PBMC and CT26 cells were grown on RPMI medium (Hyclone, GE Healthcare Life Sciences, Logan, UT, USA) supplemented with 10% (v/v) fetal bovine serum (Hyclone, GE Healthcare Life Sciences, Logan, UT, USA) and gentamicin (Sigma-Aldrich, St. Louis, MO, USA) at 37 °C in a humidified atmosphere with 5% CO2. HeLa and Sk-mel-2 cells were cultured with the same supplements and conditions in DMEM medium (Hyclone, GE Healthcare Life Sciences, Logan, UT, USA).
(§3) To evaluate the in vitro toxicity of the compounds synthesized, cells were seeded into 96-well plates at a density of 5 × 10^3 cells per well. On the next day, the tested compounds were added to the wells at concentrations ranging from 1 to 30 μg/mL, followed by incubation for 1 and 3 days. Cell proliferation was determined by adding 20 μL of MTS reagent (BioVision, Milpitas, CA, USA) stock solution per well. The plates were incubated for 2 h at 37 °C in a humidified, 5% CO2 atmosphere. The plates were then read at 495 nm using a plate spectrophotometer (Multiskan GO, Thermo Fisher Scientific, Waltham, MA, USA). All samples were measured in triplicate.

[3] = system: peripheral blood mononuclear cells (PBMC); assay: MTS cytotoxicity towards normal cells, PBMC; type: cell-based; conditions: Homo sapiens
Experimental: as §1, §2, §3

[4] = system: cervical carcinoma (HeLa) cell line; assay: MTS cell proliferation assay, HeLa; type: cell-based, human; conditions: for IC50: Homo sapiens, HeLa, MTS; for SI (selectivity index) HeLa: ratio of cytotoxicity PBMC / HeLa, calculated at 72 h
Experimental: as §1, §2, §3

[5] = system: mouse colon carcinoma (CT26) cell line; assay: MTS cell proliferation assay, CT26; type: cell-based; conditions: for IC50: Mus musculus, MTS; for SI (selectivity index) CT26: ratio of cytotoxicity PBMC / CT26, calculated at 72 h
Experimental: as §1, §2, §3

[6] = system: melanoma (Sk-mel-2) cell line; assay: MTS cell proliferation assay, Sk-mel-2; type: cell-based, human; conditions: for IC50: Homo sapiens, MTS; for SI (selectivity index) Sk-mel-2: ratio of cytotoxicity PBMC / Sk-mel-2, calculated at 72 h
Experimental: as §1, §2, §3

[7] = system: breast cancer adenocarcinoma (MCF-7) cell line; assay: MTS cell proliferation assay, MCF-7; type: cell-based, human; conditions: for IC50: Homo sapiens, MTS; for SI (selectivity index) MCF-7: ratio of cytotoxicity PBMC / MCF-7, calculated at 72 h
Experimental: as §1, §2, §3

[8] = system: human erythroleukemia (K562) cell line; assay: MTS cell proliferation assay, K562; type: cell-based; conditions: for IC50: Homo sapiens, MTS; for SI (selectivity index) K562: ratio of cytotoxicity PBMC / K562, calculated at 72 h
Experimental: as §1, §2, §3

[9] = read-out: IC50 Jurkat 24 h, 24 h
[10] = 72 h, read-out: IC50 Jurkat 72 h
[11] = read-out: IC50 CT26 24 h, CT26, 24 h
[12] = CT26, 72 h, read-out: IC50 CT26 72 h
[13] = read-out: IC50 Sk-mel-2 24 h, Sk-mel-2, 24 h
[14] = Sk-mel-2, 72 h, read-out: IC50 Sk-mel-2 72 h
[15] = MCF7, read-out: IC50 MCF-7 24 h, MCF-7, 24 h
[16] = MCF7, MCF-7, 72 h, read-out: IC50 MCF-7 72 h
[17] = read-out: IC50 K562 24 h, K562, 24 h
[18] = K562, 72 h, read-out: IC50 K562 72 h

Row | SMILES | HeLa cells with filopodia-like deformations [1] | HeLa cells with granular actin distributed diffusely in the cytoplasm (stress fibers disappeared) [1] | IC50 [2, 9] | IC50 [2, 10] | SI (selectivity index) Jurkat [2] | IC50 ([3]; 72 h, read-out: IC50 PBMC 72 h) | IC50 ([3]; read-out: IC50 PBMC 24 h, 24 h) | IC50 ([4]; read-out: IC50 HeLa 24 h, 24 h) | IC50 ([4]; 72 h, read-out: IC50 HeLa 72 h) | SI (selectivity index) HeLa [4] | IC50 [5, 11] | IC50 [5, 12] | SI (selectivity index) CT26 [5] | IC50 [6, 13] | IC50 [6, 14] | SI (selectivity index) Sk-mel-2 [6] | IC50 [7, 15] | IC50 [7, 16] | SI (selectivity index) MCF-7 [7] | IC50 [8, 17] | other results
1 | O=C1Nc2ccc([N+](=O)[O-])cc2C12N1CCCC1C1(c3ccccc3)C(c3ccccc3)C12c1ccccc1 (stereo not drawn) [Compound 2] | ≥ 64% | up to 38% | 18 ± 2 µM | 4 ± 1 µM | 22 | 84 ± 8 µM | 121 ± 8 µM | > 40 µM | 12 ± 1 µM | 7 | > 40 µM | 23 ± 2 µM | 4 | 14 ± 1 µM | 12 ± 1 µM | 7 | > 40 µM | > 40 µM | 2 | 29 ± 2 µM | IC50 [8, 18]: 8 ± 1 µM; SI (selectivity index) K562 [8]: 11
2 | COC(=O)C1C2(c3ccccc3)C(Cc3ccc(O)cc3)NC3(C(=O)Nc4ccccc43)C12c1ccccc1 (stereo not drawn) [Compound 17] | ≥ 64% | up to 38% | 12 ± 1 µM | 8 ± 1 µM | 15 | 112 ± 9 µM | 127 ± 16 µM | 31 ± 2 µM | 14 ± 2 µM | 8 | > 40 µM | 23 ± 2 µM | 5 | > 40 µM | 14 ± 2 µM | 8 | > 40 µM | > 40 µM | 2 | 35 ± 5 µM | IC50 [8, 18]: 14 ± 1 µM; SI (selectivity index) K562 [8]: 8
3 | CC(C)C1NC2(C(=O)Nc3ccccc32)C2(c3ccccc3)C(c3ccccc3)C12c1ccccc1 (stereo not drawn) [Compound 8] | ≥ 64% | up to 38% | 11 ± 1 µM | 2 ± 1 µM | 22 | 47 ± 5 µM | 83 ± 7 µM | > 40 µM | 8 ± 1 µM | 6 | > 40 µM | 11 ± 1 µM | 4 | 15 ± 1 µM | 8 ± 1 µM | 6 | > 40 µM | > 40 µM | 1 | 25 ± 1 µM | IC50 [8, 18]: 6 ± 1 µM; SI (selectivity index) K562 [8]: 7
